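Following 48 hours of exposure in 96-well plates, responses at five concentrations were used to interpolate endpoints linearly. Definition used: TGI = concentration required for complete inhibition of growth.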 Some results are limits rather than exact numbers.

Among the test systems are 786-0 renal; CAKI-1 renal; COLO 205 colon; HOP-92 NSCLC; MCF7 breast; NCI-H460 lung; NCI/ADR-RES ovarian; OVCAR-4 ovarian; OVCAR-5 ovarian; SNB-75 CNS.
What all share (experiment): NCI tumour cell line growth inhibition, 48 h

For `Clc1nc2c(-c3cccs3)ncnc2n1Cc1ccccc1`, the TGI is 59.5 µM in the assay with 786-0 renal; > 21 µM with CAKI-1 renal; > 100 µM with COLO 205 colon; 62 µM in the assay with HOP-92 NSCLC; > 100 µM in the assay on MCF7 breast; > 83.2 µM with NCI-H460 lung. The TGI in the assay with NCI/ADR-RES ovarian was > 100 µM; with OVCAR-4 ovarian, > 100 µM; in the assay on OVCAR-5 ovarian, > 100 µM; with SNB-75 CNS, 58.7 µM.
`O=C1OC(CN2CCN(c3ccccc3)CC2)CN1C(=S)Nc1ccccc1` (stereo not given): the TGI with 786-0 renal, in the assay with CAKI-1 renal, in the assay on COLO 205 colon, with HOP-92 NSCLC, with MCF7 breast and in the assay on NCI-H460 lung was > 100 µM throughout. Moreover, the TGI in the assay on NCI/ADR-RES ovarian, with OVCAR-4 ovarian, in the assay with OVCAR-5 ovarian and in the assay on SNB-75 CNS was > 100 µM in each case.
For `CSC(=NCCN=C(NS(=O)(=O)c1ccc(Cl)cc1)SC)NS(=O)(=O)c1ccc(Cl)cc1`, the TGI is > 100 µM in the assay with 786-0 renal; > 100 µM with CAKI-1 renal; > 100 µM in the assay with COLO 205 colon; 58 µM with HOP-92 NSCLC; > 100 µM in the assay with MCF7 breast; > 100 µM with NCI-H460 lung. The TGI in the assay with NCI/ADR-RES ovarian was > 100 µM; in the assay on OVCAR-4 ovarian it was > 100 µM; in the assay on OVCAR-5 ovarian, > 100 µM; with SNB-75 CNS it was 51.3 µM.
With `CN(/N=C\c1ccc2ccccc2c1)C1=NCCCCN1`, the TGI in the assay with 786-0 renal turned out to be 32.8 µM; with CAKI-1 renal, 29.9 µM; in the assay on COLO 205 colon, 35.3 µM; in the assay on HOP-92 NSCLC it was 7.4 µM; in the assay on MCF7 breast it was 48.9 µM; with NCI-H460 lung, 39.7 µM. For the same compound, the TGI is > 100 µM in the assay with NCI/ADR-RES ovarian, > 100 µM with OVCAR-4 ovarian, > 100 µM in the assay with OVCAR-5 ovarian and 59.3 µM with SNB-75 CNS.
In the case of `NNC(=O)c1n[nH]nc1SSc1n[nH]nc1C(=O)NN`, the TGI in the assay on 786-0 renal, with CAKI-1 renal, in the assay with COLO 205 colon, with HOP-92 NSCLC, with MCF7 breast and in the assay on NCI-H460 lung was > 100 µM each time. Moreover, the TGI with NCI/ADR-RES ovarian, in the assay with OVCAR-4 ovarian, in the assay on OVCAR-5 ovarian and with SNB-75 CNS was > 100 µM each time.
In the case of `O=C(C1OC1c1ccc([N+](=O)[O-])cc1)C12CC3CC(CC(C3)C1)C2` (stereo not given), the TGI was 22.1 µM in the assay on 786-0 renal; 36 µM in the assay on CAKI-1 renal; 35.4 µM with COLO 205 colon; 40.3 µM in the assay with HOP-92 NSCLC; 33.1 µM with MCF7 breast; 28.5 µM with NCI-H460 lung. Further, the TGI in the assay with NCI/ADR-RES ovarian was determined as 39.2 µM; in the assay with OVCAR-4 ovarian it was 38.9 µM; with OVCAR-5 ovarian, 39.9 µM; in the assay on SNB-75 CNS it was 39.4 µM.
On to `S=C(Nc1ccc(Br)cn1)NC12CC3CC(CC(C3)C1)C2`, for which the TGI with 786-0 renal is 21.3 µM; with CAKI-1 renal it was > 100 µM; in the assay on COLO 205 colon it was > 100 µM; in the assay on HOP-92 NSCLC it was 26.4 µM; with MCF7 breast, > 100 µM; in the assay on NCI-H460 lung, > 100 µM. Besides, the TGI with NCI/ADR-RES ovarian was 55.7 µM; with OVCAR-4 ovarian, > 100 µM; in the assay on OVCAR-5 ovarian, 90.7 µM; in the assay on SNB-75 CNS, 40.8 µM.
With `C=C(Cl)C(Cl)(CBr)CCC(Cl)C(C)(C)Cl` (stereo not given), the TGI came to 1.32 µM in the assay with 786-0 renal; 2.48 µM in the assay with CAKI-1 renal; 10.5 µM in the assay on COLO 205 colon; 2.52 µM with HOP-92 NSCLC; 3.56 µM in the assay on MCF7 breast; 2.83 µM with NCI-H460 lung. Also, the TGI is 11.8 µM with NCI/ADR-RES ovarian, 3.88 µM in the assay with OVCAR-4 ovarian, 7.41 µM with OVCAR-5 ovarian and 1.77 µM in the assay with SNB-75 CNS.
`O=C1c2cc(CCl)sc2C(=O)c2ccsc21`: the TGI in the assay on 786-0 renal was 2.88 µM; with CAKI-1 renal it was 3.09 µM; in the assay on COLO 205 colon it was 2.68 µM; in the assay on HOP-92 NSCLC it was 1.47 µM; with MCF7 breast it was 0.406 µM; in the assay on NCI-H460 lung, 2.63 µM. Also, the TGI with NCI/ADR-RES ovarian is 0.468 µM; with OVCAR-4 ovarian it was 0.336 µM; with OVCAR-5 ovarian it was 3.31 µM; in the assay with SNB-75 CNS, 0.38 µM.
In the case of `COC(=O)CCCCC/C(=C\C(=O)C(Cl)(Cl)Cl)OC`, the TGI with 786-0 renal is 68.5 µM; with CAKI-1 renal, > 100 µM; in the assay with COLO 205 colon, 57.7 µM; in the assay with HOP-92 NSCLC, 57.1 µM; in the assay with MCF7 breast it was 58.5 µM; in the assay with NCI-H460 lung, 76.9 µM. Further, the TGI is > 100 µM in the assay with NCI/ADR-RES ovarian, 42.1 µM in the assay on OVCAR-4 ovarian, > 100 µM with OVCAR-5 ovarian and 72.7 µM in the assay with SNB-75 CNS.
Regarding `CC/C(Cl)=N\OC(=O)Nc1ccc(C#N)cc1`, the TGI was 23.5 µM in the assay on 786-0 renal; 9.32 µM in the assay with CAKI-1 renal; 3.3 µM with COLO 205 colon; 8.54 µM in the assay on HOP-92 NSCLC; 29.6 µM in the assay on MCF7 breast; 36.2 µM in the assay with NCI-H460 lung. In addition, the TGI turned out to be 18.3 µM in the assay with NCI/ADR-RES ovarian, 23.6 µM in the assay on OVCAR-4 ovarian, 29.5 µM in the assay on OVCAR-5 ovarian and 28.2 µM with SNB-75 CNS.
For `CC(C)[Si](OC1=CCCCCC12C(=O)N(C)c1ccccc12)(C(C)C)C(C)C` (stereo not given), the TGI in the assay with 786-0 renal turned out to be 37.7 µM; in the assay on CAKI-1 renal it was 40.7 µM; with COLO 205 colon, 35.8 µM; in the assay on HOP-92 NSCLC, 30.8 µM; with MCF7 breast it was 34 µM; in the assay on NCI-H460 lung it was 38.4 µM. For the same compound, the TGI in the assay on NCI/ADR-RES ovarian was 42.8 µM; in the assay on OVCAR-4 ovarian it was > 100 µM; with OVCAR-5 ovarian it was 33.2 µM; with SNB-75 CNS it was 40.4 µM.

Source of the values: PubChem BioAssay (NCI).
